Assay results taken from PubChem BioAssay AID624285 (Broad Institute, 2012).
Active and inactive are the calls of the source.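 How the source made its calls: active means signal-decreasing dose-response curve whose fitted half-maximal concentration is at or below twice the highest valid tested dose; inconclusive means flat fit at 30 to 70% signal loss, or poor fit; inactive means the rest.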

Tested on: NIH3T3/HeLa viability, CellTiter-Glo ATP luminescence, 24 h
Assay: cell viability loss after compound exposure – 24 h, luminescence, cherry-picked samples, cytotoxicity control for PDI inhibitor project, dose response (AID 624285)

Row | SMILES | AC50
1 | Cc1noc(C)c1-c1ccc(C(=O)NCc2ccc(Cl)cc2)c2occc12 | > 70 µM (inactive)
2 | CCOc1cc(N2CCOCC2)c(OCC)cc1NC(=O)Cc1ccccc1OC | 39.5 µM
3 | C[C@@H]1CN([C@H](C)CO)C(=O)c2cccc(NS(C)(=O)=O)c2O[C@H]1CN(C)Cc1ccc(Oc2ccccc2)cc1 | > 70 µM (inactive)
4 | O=C(NC(Cc1c[nH]c2ccccc12)C(=O)N/N=C/c1cccnc1)c1cccs1 (configuration not stated) | > 70 µM (inactive)
5 | O=C(NCc1ccccc1CN1CCCC1)c1cc2ccccc2o1 | > 70 µM (inactive)
6 | CCCCC(=O)OC1CCC2C3CCc4cc(O)ccc4C3CCC12C (configuration not stated) | 27.3 µM
7 | CC[C@]12c3[nH]c4cc(-c5ccco5)ccc4c3CCN1C(=O)[C@@H](CC(=O)NCc1ccco1)C[C@@H]2C(=O)N1CCN(C(=O)c2ccco2)CC1 | > 70 µM (inactive)
8 | O=C1N[C@@H](Cc2c[nH]c3ccccc23)COC(=O)[C@@H](Cc2ccc(F)cc2)C/C=C\C[C@H]1CC(=O)N(CCO)Cc1ccccc1 | 30.2 µM
9 | O=C(Nc1ccc(Br)cc1F)c1cccnc1 | > 70 µM (inactive)
10 | COc1ccc(C[C@@H]2CN3C(=NC[C@@H]3Cc3ccc(O)cc3)N2C[C@H](C)NC(=O)CCC2CCCCC2)cc1 | 18.8 µM
11 | O=C(Nc1ccccc1N1CCCC1)c1cc(Cl)ccc1Cl | > 70 µM (inactive)
12 | Cc1ccc(S(=O)(=O)N(C)c2ccc(OC(=O)COc3ccccc3)cc2)cc1 | > 70 µM (inactive)
13 | O=c1cc(CN2CCN(S(=O)(=O)/C=C/c3ccccc3)CC2)c2ccc(O)cc2o1 | > 70 µM (inactive)
14 | Cc1sc(NC(=O)CCl)c(C(=O)c2ccccc2)c1C | 15.4 µM
15 | Cc1[nH][nH]c(=O)c1C(c1c(C)[nH][nH]c1=O)c1cn(Cc2ccccc2Cl)c2ccccc12 | > 70 µM (inactive)
16 | CCOC(=O)C1(CCOc2ccccc2)CCN(Cc2ccccc2O)CC1 | > 70 µM (inactive)
17 | CCSc1nnc([C@H](Cc2c[nH]c3ccccc23)NC(=O)OC(C)(C)C)o1 | > 70 µM (inactive)
